Assay [1] concerns Candida albicans. As to the kind of experiment: Antifungal activity against Candida albicans by microdilution test. The assay is classed as functional. A general note: In broth dilution the organism is exposed to a series of concentrations in liquid medium.
In assay [2] the test system is Candida parapsilosis. Nature of the assay: Antifungal activity against Candida parapsilosis by microdilution test. The assay is classed as functional.
The subject of assay [3] is Nakaseomyces glabratus. As to the kind of experiment: Antifungal activity against Candida glabrata by microdilution test. Format: functional.
The test system of assay [4] is Pichia kudriavzevii. Nature of the assay: Antifungal activity against Candida krusei by microdilution test. The assay is classed as functional.
In assay [5] the test system is Meyerozyma guilliermondii. As to the kind of experiment: Antifungal activity against Candida guilliermondii by microdilution test. Format: functional.
The test system of assay [6] is Cryptococcus neoformans. As to the kind of experiment: Antifungal activity against Cryptococcus neoformans by microdilution test. The assay is classed as functional.
Assay [7] in a line: Antifungal activity against Aspergillus fumigates by microdilution test. The assay is classed as functional.
Assay [8] has as its system Aspergillus flavus. Nature of the assay: Antifungal activity against Aspergillus flavus by microdilution test. The assay is classed as functional.
Assay [9] deals with Aspergillus niger. Nature of the assay: Antifungal activity against Aspergillus niger by microdilution test. The assay is classed as functional.
For assay [10], the system named is Aspergillus nidulans. Nature of the assay: Antifungal activity against Aspergillus nidulans by microdilution test. The assay is classed as functional, organism-based.
Assay [11] relates to Aspergillus terreus. As to the kind of experiment: Antifungal activity against Aspergillus terreus by microdilution test. The assay is classed as functional.
Assay [12] can be described thus: Antifungal activity against Cladophialophora carrionii by microdilution test. The assay is classed as functional.
Assay [13] deals with Exophiala spinifera. Nature of the assay: Antifungal activity against Exophiala spinifera by microdilution test. The assay is classed as functional.
The nature of assay [14]: Antifungal activity against Exophiala oligosperma by microdilution test. Format: functional.
Assay [15] is described as follows: Antifungal activity against Exophiala xenobiotica by microdilution test. The assay is classed as functional.
Assay [16] deals with Candida albicans. As to the kind of experiment: Antifungal activity against Candida albicans by diffusion test. The assay is classed as functional, organism-based.
Assay [17] concerns Candida parapsilosis. Nature of the assay: Antifungal activity against Candida parapsilosis by diffusion test. Format: functional, organism-based.
The subject of assay [18] is Nakaseomyces glabratus. As to the kind of experiment: Antifungal activity against Candida glabrata by diffusion test. The assay is classed as functional, organism-based.
Assay [19] deals with Pichia kudriavzevii. As to the kind of experiment: Antifungal activity against Candida krusei by diffusion test. The assay is classed as functional, organism-based.
The subject of assay [20] is Meyerozyma guilliermondii. As to the kind of experiment: Antifungal activity against Candida guilliermondii by diffusion test. Format: functional, organism-based.
Assay [21] relates to Cryptococcus neoformans. As to the kind of experiment: Antifungal activity against Cryptococcus neoformans by diffusion test. Format: functional, organism-based.
The nature of assay [22]: Antifungal activity against Aspergillus fumigates by diffusion test. Format: functional.
Assay [23] has as its system Aspergillus flavus. As to the kind of experiment: Antifungal activity against Aspergillus flavus by diffusion test. The assay is classed as functional, organism-based.
Assay [24] has as its system Aspergillus niger. Nature of the assay: Antifungal activity against Aspergillus niger by diffusion test. The assay is classed as functional, organism-based.
For assay [25], the system named is Aspergillus nidulans. Nature of the assay: Antifungal activity against Aspergillus nidulans by diffusion test. The assay is classed as functional, organism-based.
Assay [26] relates to Aspergillus terreus. As to the kind of experiment: Antifungal activity against Aspergillus terreus by diffusion test. Format: functional, organism-based.
Assay [27] is described as follows: Antifungal activity against Cladophialophora carrionii by diffusion test. The assay is classed as functional.
In assay [28] the test system is Exophiala spinifera. Nature of the assay: Antifungal activity against Exophiala spinifera by diffusion test. Format: functional, organism-based.
Assay [29] is described as follows: Antifungal activity against Exophiala oligosperma by diffusion test. The assay is classed as functional.
The nature of assay [30]: Antifungal activity against Exophiala xenobiotica by diffusion test. Format: functional.

Activity calls are given as the source filed them. No cut-off for these calls is given here.

On to `O=C(CCl)n1c2ccccc2c2ccccc21`, for which the outcome (in the assay on Candida albicans [1]; in the assay on Candida parapsilosis [2]; in the assay with Nakaseomyces glabratus [3]; with Pichia kudriavzevii [4]; in assay [5]; with Cryptococcus neoformans [6]) was inactive. In addition, the outcome (in assay [7]; in the assay on Aspergillus flavus [8]; in the assay on Aspergillus niger [9]; with Aspergillus nidulans [10]; in the assay with Aspergillus terreus [11]; in assay [12]) was inactive. Moreover, the result (in the assay with Exophiala spinifera [13]; in assay [14]; in assay [15]) was inactive.

With `CN(C)S(=O)(=O)c1ccc2c(c1)Nc1ccccc1S2`, the outcome (with Candida albicans [16]; with Candida parapsilosis [17]; in the assay on Nakaseomyces glabratus [18]; in the assay with Pichia kudriavzevii [19]; in [20]; with Cryptococcus neoformans [21]) was Active. Further, the outcome (in assay [22]; with Aspergillus flavus [23]; with Aspergillus niger [24]; in the assay with Aspergillus nidulans [25]; in the assay with Aspergillus terreus [26]; in [27]) was Active. Moreover, the result (with Exophiala spinifera [28]; in assay [29]; in assay [30]) was Active. Also, the outcome (in the assay with Candida albicans [1]; in the assay with Candida parapsilosis [2]; in the assay with Nakaseomyces glabratus [3]; in the assay with Pichia kudriavzevii [4]; in assay [5]; in the assay on Cryptococcus neoformans [6]) was inactive. In addition, the result (in assay [7]; with Aspergillus flavus [8]; with Aspergillus niger [9]; in the assay with Aspergillus nidulans [10]; in the assay with Aspergillus terreus [11]; in assay [12]) was inactive. Also, the result (in the assay on Exophiala spinifera [13]; in [14]; in assay [15]) was inactive.

For `CN(C)S(=O)(=O)c1ccc2c(c1)N(C(=O)CCCl)c1ccccc1S2`, the result (in the assay with Candida albicans [1]; with Candida parapsilosis [2]; in the assay with Nakaseomyces glabratus [3]; in the assay on Pichia kudriavzevii [4]; in [5]; in the assay on Cryptococcus neoformans [6]) was inactive. Besides, the result (in assay [7]; in the assay with Aspergillus flavus [8]; in the assay with Aspergillus niger [9]; with Aspergillus nidulans [10]; with Aspergillus terreus [11]; in assay [12]) was inactive. Moreover, the result (with Exophiala spinifera [13]; in assay [14]; in assay [15]) was inactive.

On to `CN(C)S(=O)(=O)c1ccc2c(c1)N(C(=O)CCl)c1ccccc1S2`, for which the outcome (with Candida albicans [1]; with Candida parapsilosis [2]; with Nakaseomyces glabratus [3]; with Pichia kudriavzevii [4]; in assay [5]; with Cryptococcus neoformans [6]) was inactive. The outcome (in assay [7]; with Aspergillus flavus [8]; in the assay with Aspergillus niger [9]; in the assay on Aspergillus nidulans [10]; in the assay with Aspergillus terreus [11]; in assay [12]) was inactive. Further, the outcome (in the assay on Exophiala spinifera [13]; in [14]; in assay [15]) was inactive.

For the molecule `O=C(CCCl)N1c2ccccc2Sc2ccccc21`, the result (with Candida albicans [1]; in the assay on Candida parapsilosis [2]; in the assay on Nakaseomyces glabratus [3]; with Pichia kudriavzevii [4]; in assay [5]; in the assay on Cryptococcus neoformans [6]) was inactive. Besides, the outcome (in [7]; in the assay on Aspergillus flavus [8]; in the assay on Aspergillus niger [9]; with Aspergillus nidulans [10]; in the assay on Aspergillus terreus [11]; in assay [12]) was inactive. The outcome (in the assay with Exophiala spinifera [13]; in [14]; in assay [15]) was inactive.

The values above are taken from ChEMBL document CHEMBL1649364, “Synthesis and antifungal activity of some substituted phenothiazines and related compounds” (2011).
